Assay results taken from patent publication US20050226919A1, “Device for transdermal administration for the treatment of urinary tract disorders” (priority 2001, published 2005).

Tests used:
α1a-receptor = biological target: T1, α1a-receptor (Homo sapiens, UniProt P35348); conditions: Murata et al., Br. J. Pharmacol. (1999) 127, 19-26; cited from earlier work
T1 sequence (P35348 1-466): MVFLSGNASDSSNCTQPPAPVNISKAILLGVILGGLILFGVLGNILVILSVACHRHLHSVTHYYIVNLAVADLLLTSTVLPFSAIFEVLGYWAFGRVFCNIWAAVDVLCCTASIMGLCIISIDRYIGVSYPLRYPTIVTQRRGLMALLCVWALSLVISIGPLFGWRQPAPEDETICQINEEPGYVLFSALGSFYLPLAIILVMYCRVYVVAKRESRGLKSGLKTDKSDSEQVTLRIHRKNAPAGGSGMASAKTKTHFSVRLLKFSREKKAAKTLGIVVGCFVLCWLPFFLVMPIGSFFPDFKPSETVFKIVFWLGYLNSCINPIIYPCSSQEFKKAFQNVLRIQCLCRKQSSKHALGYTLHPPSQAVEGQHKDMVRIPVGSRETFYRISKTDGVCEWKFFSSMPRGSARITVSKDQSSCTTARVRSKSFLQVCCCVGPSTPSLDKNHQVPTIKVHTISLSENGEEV

[1] = Skin permeation across human skin (in vitro penetration assay); type: in vitro ADME
Experimental: (§1) The skin permeation of KMD 3213 was also evaluated on hairless mouse skin and human skin. Human skin penetration assays were performed as described by Tanojo et al. in Journal of Controlled Release 45 (1997), 41-47. The concentration of KMD 3213 was measured by HPLC with a Symetry Shield RP-8, 3.9*150 mm 5 μm column; T=35° C.; eluent: water/acetonitrile/trifluoracetic acid 800/200/1 (v/v/v); dectetion UV at 225 nm; flux rate 1.5 ml/min; injection volume: 100 μl at 23° C.

[2] = Skin permeation across hairless mouse skin (horizontal diffusion cell); type: in vitro ADME
Experimental: as §1
The flux measurements on hairless mouse skin were conducted using a TTS area of 2.55 cm^2 fixed on mouse abdominal and back skin in a horizontal diffusion cell. Immediately thereafter the acceptor chamber of the cell was filled with phosphate buffer solution (0.066 molar) previously adjusted to 32±0.5° C. and pH 6.2, in an air-bubble free state, and the release medium thermostatted to 32±0.5° C. At the time of sampling (after 3, 6, 24 and 48 hours) the release medium is exchanged with fresh medium thermostatted at 32±0.5° C. KMD 3213 was measured with HPLC as explained above.

In the case of `C[C@H](Cc1cc2c(c(C(N)=O)c1)N(CCCO)CC2)NCCOc1ccccc1OCC(F)(F)F` [KMD 3213, (-)-(R)-1-(3-hydroxypropyl)-5-[2-[[2-[2-(2,2,2-trifluoroethoxy)phenoxy]ethyl]amino]propyl]indoline-7-carboxamide], the α-adrenoceptor subtype specificity (α1a-receptor) is given as “binding specifically to the α1a-receptor”, the “steady state flux rate on human skin” value [1] is given as 2.9 mg/20 cm^2 per day and the “steady state skin permeation rate on hairless mouse skin” value ([2]; hairless mouse skin, TTS area 2.55 cm^2, phosphate buffer pH 6.2, 32°C) is given as “approximately 2.7 mg/20 cm^2 per day”. For the same compound, the “steady state flux rate through mouse skin” value ([2]; mouse skin, from the devices of the invention) was 2.7 mg/day.
